# Patent US20250064945A1 (Arvinas Operations, Inc., priority 2021, published 2025)
# Counter-ions that a name gives are not always drawn.
# Target: T1, recombinant human 6×His-tagged-BRM (bromodomain-only; aa. 1377-1486) (Homo sapiens, UniProt P51531)
# T1 construct: (bromodomain-only; aa; 1377-1486; NP_620614); made in house; host or cells: Escherichia coli
# Assay: AlphaLISA competitive BRM binding assay
# Settings: 7 nM 6×His-BRM, 20 nM biotinylated probe
# Method: AlphaLISA Competitive BRM Binding Assay
# Compounds were serially diluted in 100% DMSO in 3-fold increments. An intermediate compound plate was created at 10% DMSO in AlphaLISA buffer (50 mM Hepes, pH 7.5, 50 mM NaCl, […] Brij-35, 0.1 mg/mL BSA) and then […] of compound transferred from the intermediate plate into a white, 384-OptiPlate (Perkin Elmer, #6007290). A solution of protein (recombinant human 6×His-tagged-BRM (bromodomain-only; aa. 1377-1486; NP_620614) expressed in Escherichia coli) and biotinylated probe are mixed and pre-incubated for 10 minutes. Following incubation, […] of protein/probe solution is added to each well of the 384-OptiPlate, resulting in final assay concentration of 7 nM protein (6×His-BRM) and 20 nM biotinylated probe. Compound and protein/probe solution were incubated at room temperature for 10 minutes. […] of anti-His conjugated AlphaLISA acceptor beads (PerkinElmer #AL128M), diluted 100× in AlphaLISA buffer, were added to each well of the assay plate. This addition was followed by a 10-minute incubation at room temperature, in the dark. Lastly, […] of streptavidin donor beads (PerkinElmer #6760002), diluted 100× in AlphaLISA buffer, were added to each well of the assay plate. Final assay plate was incubated for 15 minutes before read, signal is stable up to 4 hours after donor bead addition.
# Assay plates were read using an Envision® multimode microplate reader (PerkinElmer #2105-0010) using the Europium/615 nm emission filter. Data is reported as percent displacement, 100% binding is based on the average fluorescent count (FC) of zero compound column and 0% binding is based on the average fluorescent count (FC) of zero protein (His-BRM) column. Percent displacement is calculated based on the following equation:
# ((100% Binding FC−Compound Well FC)/(100% Binding FC−0% Binding FC))*100
# Data is fit using a 4-parameter non-linear regression analysis in GraphPad Prism.
row,Kd,SMILES
1,≥ 10000 nM,Cn1cc(-c2cc(N)nc3nc(-c4ccccc4O)cn23)cn1 [BRM8]
2,≥ 10000 nM,Nc1cc(C#Cc2ccncc2)n2cc(-c3ccccc3O)nc2n1 [BRM9]
3,2500 to 10000 nM,Nc1nc2nc(-c3ccccc3O)cn2cc1C#Cc1ccncc1 [BRM5]
4,< 500 nM,C#Cc1cn2cc(-c3ccccc3O)nc2nc1N [BRM3]
5,≥ 10000 nM,"Oc1ccn2cc(-c3ccccc3O)nc2n1 [BRM4, 2-(2-hydroxyphenyl) imidazo[1,2-a]pyrimidin-7-ol trifluoroacetate]"
6,< 500 nM,"COC/C=C/c1cn2cc(-c3ccccc3O)nc2nc1N [BRM19, 2-[7-amino-6-[(E)-3-methoxyprop-1-enyl]imidazo [1,2-a]pyrimidin-2-yl]phenol]"
7,500 to 2500 nM,Oc1ccccc1-c1cn2cccnc2n1 [BRM1]
8,500 to 2500 nM,"Cn1cc(-c2cnc3nc(-c4ccccc4O)cn3c2)cn1 [BRM16, 2-[6-(1-methylpyrazol-4-yl)imidazo[1,2-a]pyrimidin-2-yl] phenol]"
9,< 500 nM,"Cn1cc(-c2cn3cc(-c4ccccc4O)nc3nc2N)cn1 [BRM18, 2-[7-amino-6-(1-methylpyrazol-4-yl)imidazo[1,2-a]pyrimidin-2-yl]phenol]"
10,< 500 nM,COCCOCC#Cc1cn2cc(-c3ccccc3O)nc2nc1N [BRM13]
11,≥ 10000 nM,CN1CCN(c2cc(N)nc3nc(-c4ccccc4O)cn23)CC1 [BRM7]
12,2500 to 10000 nM,"COC/C=C/c1cnc2nc(-c3ccccc3O)cn2c1 [BRM17, 2-[6-[(E)-3-methoxyprop-1-enyl]imidazo[1,2-a]pyrimidin-2-yl]phenol]"
13,≥ 10000 nM,Oc1ccccc1-c1cn2cc(C#Cc3ccncc3)cnc2n1 [BRM11]
14,2500 to 10000 nM,C#Cc1cc(N)nc2nc(-c3ccccc3O)cn12 [BRM6]
15,≥ 10000 nM,C#Cc1cnc2nc(-c3ccccc3O)cn2c1 [BRM12]
16,500 to 2500 nM,"CN1CCN(c2cnc3nc(-c4ccccc4O)cn3c2)CC1 [BRM14, 2-[6-(4-methylpiperazin-1-yl)imidazo[1,2-a]pyrimidin-2-yl]phenol]"
17,< 500 nM,Nc1ccn2cc(-c3ccccc3O)nc2n1 [BRM2]

row,SMILES,Kd
1,"CN1CC2CCC(C1)N2c1cnc2nc(-c3ccccc3O)cn2c1 [BRM15, 2-[6-(3-methyl-3,8-diazabicyclo[3.2.1]octan-8-yl)imidazo[1,2-a]pyrimidin-2-yl] phenol]",2500 to 10000 nM
2,CN1C2CCC1CN(c1cc(N)nc3nc(-c4ccccc4O)cn13)C2 [BRM10],≥ 10000 nM
